Source: paper PMC5681922, “Systemic Responses of Multidrug-Resistant Pseudomonas aeruginosa and Acinetobacter baumannii Following Exposure to the Antimicrobial Peptide Cathelicidin-BF Imply Multiple Intracellular Targets” (Frontiers in Cellular and Infection Microbiology, 2017)
Where two headings read alike, the source gives them in different places. No end group written: not given here.

Key:
[1] = system: 293FT (human embryonic kidney cells); settings: XTT, 24 h, serum-free DMEM
Method: (§1) Cell viability was measured using cell proliferation kit II (XTT) (Roche). Cells, including A549 (adenocarcinomic human alveolar basal epithelial cells), 293FT (human embryonic kidney cells) and L929 (murine fibroblast cells), were cultured in Dulbecco's […] (DMEM) supplemented with 10% fetal bovine serum, 100 U penicillin/mL, and 100 μg streptomycin/mL in a humidified 5% CO2 atmosphere at 37°C. After digestion with trypsin, the cells were diluted in serum-free DMEM without phenol red to a final concentration of 2 × 10^5 cell/mL, seeded in 96 well plates (100 μl/well) and cultured overnight until adhesion. Cathelicidin-BF dissolved in serum-free DMEM without phenol red was added to wells, and the plates were incubated for 24 h as previously described. Subsequent procedures were performed according to the kit. Briefly, XTT labeling reagent (sodium 3′-[1-(phenylaminocarbonyl)-3,4-tetrazolium]-bis-4-methoxy-6-nitro) benzene sulfonic acid hydrate) in Roswell Park Memorial Institute (RPMI) 1640 medium without phenol red was mixed with electron-coupling reagent PMS (N-methyl dibenzopyrazine methyl sulfate) at a volume ratio of 50:1 to make the working solution. Fifty microliters of the XTT labeling mixture was added to each well and incubated at the same conditions for 6 h. Absorbance [A492 nm-A690 nm] stands for the quantification of viable cells.
(§2) Figure 2 Cytotoxicity of cathelicidin-BF. Hemolysis and cell viability assays were conducted to test the cytotoxicity of cathelicidin-BF to mammalian cells.

[2] = system: A549 (adenocarcinomic human alveolar basal epithelial cells); settings: 400 mg/L; XTT, 24 h, serum-free DMEM
Method: as §1, §2

[3] = system: L929 (murine fibroblast cells); settings: 400 mg/L; XTT, 24 h, serum-free DMEM
Method: as §1, §2

P. aeruginosa 1409 [4] = test: Membrane permeabilization assay (propidium iodide); format: cell-based, Pseudomonas aeruginosa; settings: 1 h at 25°C in LB, then PI 10 μg/mL 30 min, fluorescence microscope
Method: Then, PI was added to a final concentration of 10 μg/mL. After 30 min of incubation at 25°C, the cells were washed 3 times with PBS and immediately imaged with a fluorescence microscope (Olympus, Japan) (Yu et al., [2015]).
Figure 3 Bacterial plasma membrane permeabilization assay of cathelicidin-BF. Cathelicidin-BF and levofloxacin were incubated with MDR P. aeruginosa in Luria-Bertani medium at final concentrations of 4 × MIC (minimal inhibitory concentration) or ¼ × MIC. After incubation at 25°C for 1 h, bacteria were collected by centrifugation at 3,000 × g for 5 min and resuspended with PBS. The DNA-binding fluorescent dye PI was added to a final concentration of 10 μg/mL. After 30 min incubation at 25°C, the cells were washed 3 times with PBS and immediately imaged using a fluorescence microscope.

P. aeruginosa 1409 [5] = system: P. aeruginosa 1409

Question: What does the source list for “KFFRKLKKSVKKRAKEFFKKPRVIGVSIPF [cathelicidin-BF]”?
Answer: concentrations at which proliferation of 293FT cells was inhibited [1]: > 50 µg/mL; effect on A549 cells [2]: intact; effect on L929 cells [3]: intact; integrity of bacterial membranes, PI staining at 4 × MIC (P. aeruginosa 1409 [4]; 4 × MIC (cathelicidin-BF 32 μg/mL, levofloxacin 64 μg/mL)): showed red fluorescence; integrity of bacterial membranes, PI staining at ¼ × MIC (P. aeruginosa 1409 [4]; ¼ × MIC (cathelicidin-BF 2 μg/mL, levofloxacin 4 μg/mL)): no red dyes were detected; Pa-Ca/Pa-C (P. aeruginosa 1409 [5]): 0.8832; Pa-Ca/Pa-C: 30S ribosomal protein S9, rpsI (Q9HVY3) (P. aeruginosa 1409 [5]): 0.9749; expression of protein Q9HVA1 (acetolactate synthase isozyme III small subunit) (P. aeruginosa 1409 [5]): overexpressed; expression of protein Q9I3S7 (likely decarboxylase) (P. aeruginosa 1409 [5]): downregulated; expression of protein Q9I523 (nucleoside-triphosphate diphosphatase) (P. aeruginosa 1409 [5]): downregulated; Pa-Ca/Pa-C (P. aeruginosa 1409 [5]; iTRAQ abundance ratio Pa-Cathelicidin/Pa-Control of protein G3XCU7 (GN=PA2949)): 0.9896; Pa-Ca/Pa-C (P. aeruginosa 1409 [5]; iTRAQ abundance ratio Pa-Cathelicidin/Pa-Control of protein G3XCU9 (GN=PA2020)): 0.9868; Pa-Ca/Pa-C (P. aeruginosa 1409 [5]; iTRAQ abundance ratio Pa-Cathelicidin/Pa-Control of protein G3XCW2 (GN=PA2018)): 1.1346; Pa-Ca/Pa-C (P. aeruginosa 1409 [5]; iTRAQ abundance ratio Pa-Cathelicidin/Pa-Control of protein G3XCX7 (GN=pilP)): 0.9395; Pa-Ca/Pa-C (P. aeruginosa 1409 [5]; iTRAQ abundance ratio Pa-Cathelicidin/Pa-Control of protein G3XCZ4 (GN=PA0891)): 1.209; Pa-Ca/Pa-C (P. aeruginosa 1409 [5]; iTRAQ abundance ratio Pa-Cathelicidin/Pa-Control of protein G3XD66 (GN=narX)): 0.9046; Pa-Ca/Pa-C (P. aeruginosa 1409 [5]; iTRAQ abundance ratio Pa-Cathelicidin/Pa-Control of protein G3XD98 (GN=gacS)): 1.089; Pa-Ca/Pa-C (P. aeruginosa 1409 [5]; iTRAQ abundance ratio Pa-Cathelicidin/Pa-Control of protein G3XDA4 (GN=PA0653)): 1.044; Pa-Ca/Pa-C (P. aeruginosa 1409 [5]; iTRAQ abundance ratio Pa-Cathelicidin/Pa-Control of protein O50273 (GN=cysD)): 0.9324; Pa-Ca/Pa-C (P. aeruginosa 1409 [5]; iTRAQ abundance ratio Pa-Cathelicidin/Pa-Control of protein O68561 (GN=PA4766)): 1.042; Pa-Ca/Pa-C (P. aeruginosa 1409 [5]; iTRAQ abundance ratio Pa-Cathelicidin/Pa-Control of protein P23747 (GN=algB)): 1.041; Pa-Ca/Pa-C (P. aeruginosa 1409 [5]; iTRAQ abundance ratio Pa-Cathelicidin/Pa-Control of protein Q9HT06 (GN=yidC)): 1.13; Pa-Ca/Pa-C (P. aeruginosa 1409 [5]; iTRAQ abundance ratio Pa-Cathelicidin/Pa-Control of protein Q9HT09 (GN=mnmG)): 1.075; Pa-Ca/Pa-C (P. aeruginosa 1409 [5]; iTRAQ abundance ratio Pa-Cathelicidin/Pa-Control of protein Q9HTC2 (GN=PA5445)): 1.07; Pa-Ca/Pa-C (P. aeruginosa 1409 [5]; iTRAQ abundance ratio Pa-Cathelicidin/Pa-Control of protein Q9HTG5 (GN=dgcB)): 1.053; Pa-Ca/Pa-C (P. aeruginosa 1409 [5]; iTRAQ abundance ratio Pa-Cathelicidin/Pa-Control of protein Q9HTH5 (GN=cdhR)): 1.224; Pa-Ca/Pa-C (P. aeruginosa 1409 [5]; iTRAQ abundance ratio Pa-Cathelicidin/Pa-Control of protein Q9HTJ5 (GN=pstA)): 0.8996; Pa-Ca/Pa-C (P. aeruginosa 1409 [5]; iTRAQ abundance ratio Pa-Cathelicidin/Pa-Control of protein Q9HTL3 (GN=recG)): 1.182; Pa-Ca/Pa-C (P. aeruginosa 1409 [5]; iTRAQ abundance ratio Pa-Cathelicidin/Pa-Control of protein Q9HTM0 (GN=spoT)): 1.095; Pa-Ca/Pa-C (P. aeruginosa 1409 [5]; iTRAQ abundance ratio Pa-Cathelicidin/Pa-Control of protein Q9HTN3 (GN=dut)): 1.23; Pa-Ca/Pa-C (P. aeruginosa 1409 [5]; iTRAQ abundance ratio Pa-Cathelicidin/Pa-Control of protein Q9HTQ6 (GN=xpt)): 1.069; Pa-Ca/Pa-C (P. aeruginosa 1409 [5]; iTRAQ abundance ratio Pa-Cathelicidin/Pa-Control of protein Q9HTY4 (GN=argE)): 1.064; Pa-Ca/Pa-C (P. aeruginosa 1409 [5]; iTRAQ abundance ratio Pa-Cathelicidin/Pa-Control of protein Q9HU23 (GN=rmlD)): 0.9526; Pa-Ca/Pa-C (P. aeruginosa 1409 [5]; iTRAQ abundance ratio Pa-Cathelicidin/Pa-Control of protein Q9HU51 (GN=PA5133)): 0.8597; Pa-Ca/Pa-C (P. aeruginosa 1409 [5]; iTRAQ abundance ratio Pa-Cathelicidin/Pa-Control of protein Q9HUB1 (GN=PA5072)): 1.129; Pa-Ca/Pa-C (P. aeruginosa 1409 [5]; iTRAQ abundance ratio Pa-Cathelicidin/Pa-Control of protein Q9HUL5 (GN=PA4949)): 0.9992; Pa-Ca/Pa-C (P. aeruginosa 1409 [5]; iTRAQ abundance ratio Pa-Cathelicidin/Pa-Control of protein Q9HUN4 (GN=alr)): 0.8997; Pa-Ca/Pa-C (P. aeruginosa 1409 [5]; iTRAQ abundance ratio Pa-Cathelicidin/Pa-Control of protein Q9HUS6 (GN=PA4887)): 0.9498; Pa-Ca/Pa-C (P. aeruginosa 1409 [5]; iTRAQ abundance ratio Pa-Cathelicidin/Pa-Control of protein Q9HUT5 (GN=PA4878)): 0.8866; Pa-Ca/Pa-C (P. aeruginosa 1409 [5]; iTRAQ abundance ratio Pa-Cathelicidin/Pa-Control of protein Q9HVA1 (GN=ilvH)): 1.442; Pa-Ca/Pa-C (P. aeruginosa 1409 [5]; iTRAQ abundance ratio Pa-Cathelicidin/Pa-Control of protein Q9HVI2 (GN=PA4607)): 1.1056; Pa-Ca/Pa-C (P. aeruginosa 1409 [5]; iTRAQ abundance ratio Pa-Cathelicidin/Pa-Control of protein Q9HVI3 (GN=PA4606)): 1.1297; Pa-Ca/Pa-C (P. aeruginosa 1409 [5]; iTRAQ abundance ratio Pa-Cathelicidin/Pa-Control of protein Q9HVP4 (GN=PA4533)): 1.032; Pa-Ca/Pa-C (P. aeruginosa 1409 [5]; iTRAQ abundance ratio Pa-Cathelicidin/Pa-Control of protein Q9HVQ9 (GN=lpxO1)): 0.3833; Pa-Ca/Pa-C (P. aeruginosa 1409 [5]; iTRAQ abundance ratio Pa-Cathelicidin/Pa-Control of protein Q9HVV6 (GN=PA4461)): 0.9096; Pa-Ca/Pa-C (P. aeruginosa 1409 [5]; iTRAQ abundance ratio Pa-Cathelicidin/Pa-Control of protein Q9HW10 (GN=PA4396)): 0.9909; Pa-Ca/Pa-C (P. aeruginosa 1409 [5]; iTRAQ abundance ratio Pa-Cathelicidin/Pa-Control of protein Q9HW40 (GN=PA4361)): 1.028; Pa-Ca/Pa-C (P. aeruginosa 1409 [5]; iTRAQ abundance ratio Pa-Cathelicidin/Pa-Control of protein Q9HW52 (GN=PA4349)): 1.052; Pa-Ca/Pa-C (P. aeruginosa 1409 [5]; iTRAQ abundance ratio Pa-Cathelicidin/Pa-Control of protein Q9HW85 (GN=sbcB)): 0.9833; Pa-Ca/Pa-C (P. aeruginosa 1409 [5]; iTRAQ abundance ratio Pa-Cathelicidin/Pa-Control of protein Q9HWG9 (GN=phzS)): 0.9442; Pa-Ca/Pa-C (P. aeruginosa 1409 [5]; iTRAQ abundance ratio Pa-Cathelicidin/Pa-Control of protein Q9HX06 (GN=PA4021)): 1.123; Pa-Ca/Pa-C (P. aeruginosa 1409 [5]; iTRAQ abundance ratio Pa-Cathelicidin/Pa-Control of protein Q9HX89 (GN=PA3924)): 0.8403; Pa-Ca/Pa-C (P. aeruginosa 1409 [5]; iTRAQ abundance ratio Pa-Cathelicidin/Pa-Control of protein Q9HXF4 (GN=PA3852)): 1.051; Pa-Ca/Pa-C (P. aeruginosa 1409 [5]; iTRAQ abundance ratio Pa-Cathelicidin/Pa-Control of protein Q9HXG8 (GN=PA3836)): 1.058; Pa-Ca/Pa-C (P. aeruginosa 1409 [5]; iTRAQ abundance ratio Pa-Cathelicidin/Pa-Control of protein Q9HXL6 (GN=PA3779)): 0.9473; Pa-Ca/Pa-C (P. aeruginosa 1409 [5]; iTRAQ abundance ratio Pa-Cathelicidin/Pa-Control of protein Q9HXT9 (GN=wspR)): 1.096
